From patent US12653190B2, “Heteroaryl-triazole compounds as pesticides” (Bayer Aktiengesellschaft, priority 2020, dated 2026)

What was measured:
Assay type in all cases: in vivo
[1] = test system: larvae of the southern green stink bug (Nezara viridula); experiment: Nezara viridula spray test; details: 96 h, 100 g/ha, after 4 days, barley plants
Summary of the method: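 Percent mortality of southern green stink bug larvae was recorded at day 4, with 100% meaning all dead. The larvae were placed on barley sprayed with the test solution. That solution was prepared from acetone/dimethylformamide concentrate diluted in emulsifier-containing water (1000 ppm).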

[2] = test system: adult mosquitoes Culex quinquefasciatus strain P00; experiment: Culex quinquefasciatus test (CULXFA surface treatment & contact assay); details: surface concentration 20 mg/m^2, 30 minutes exposure, 24 hours after contact, read-out: efficacy (mortality)
Summary of the method: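 Compound dissolved at 2 mg/ml in acetone with 2000 ppm rapeseed oil methyl ester, pipetted onto glazed tile and acetone evaporated. Adult Culex quinquefasciatus strain P00 exposed to dried surface for 30 minutes; percent mortality scored 24 hours after contact.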

[3] = test system: adult engorged female ticks (Rhipicephalus microplus); experiment: Rhipicephalus (Boophilus) microplus injection test; details: 168 h, egg deposition monitored after 7 days, read-out: efficacy (infertile eggs)
Summary of the method: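 Five adult engorged female ticks each injected with 1 μL of DMSO compound solution into the abdomen, then kept in a climate chamber. Fertile egg deposition assessed after 7 days, with hatching followed to about 42 days; efficacy 100% means all eggs infertile, 0% all fertile.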

[4] = test system: adult unfed cat fleas (Ctenocephalides felis); experiment: Ctenocephalides felis oral test; details: 48 h, 100 ppm in cattle blood, after 2 days
Summary of the method: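 About 20 adult unfed fleas feed through parafilm on cattle blood spiked with compound (DMSO stock diluted in blood); blood held at 37° C., fleas at room temperature. Mortality (%) scored after 2 days, 100% meaning all fleas killed.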

[5] = test system: green peach aphid (Myzus persicae); experiment: Myzus persicae spray test; details: foliar, 120 h, after 5 days, Chinese cabbage leaf disks
Summary of the method: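 Chinese cabbage leaf disks infested with all aphid instars were sprayed with compound in acetone/DMF, diluted in water with 1000 ppm alkylarylpolyglycol ether emulsifier. Mortality (%) scored after 5 days, 100% meaning all aphids killed.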

[6] = test system: Rhipicephalus (Boophilus) microplus larvae (strain Parkhurst, resistant against synthetic pyrethroids); experiment: Rhipicephalus (Boophilus) microplus in-vitro contact test, larval cattle tick; details: 5 μg/cm^2 (=500 g/ha), after 48 hours, read-out: efficacy (larvae dead or moribund)
Summary of the method: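 Acetone solutions coated onto glass tube walls, 900 ppm giving 5 μg/cm^2; 20–50 larvae per tube after solvent evaporation. Incubated 48 h at 27 °C, 85% relative humidity; efficacy from negative geotaxis, 100% meaning all larvae dead or moribund.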

[7] = test system: adult brown dog ticks (Rhipicephalus sanguineus); experiment: Rhipicephalus sanguineus in-vitro contact test, adult brown dog ticks; details: 5 μg/cm^2 (=500 g/ha), after 48 hours, read-out: efficacy (ticks dead or moribund)
Description: Rhipicephalus sanguineus—In-Vitro Contact Tests with Adult Brown Dog Ticks
9 mg compound is solved in 1 mL acetone and diluted with acetone to the desired concentration. 250 μL of the test solution is filled in 25 mL glass test tubes and homogeneously distributed on the inner walls by rotation and tilting on a shaking device (2 h at 30 rpm). With a compound concentration of 900 ppm, an inner surface of 44.7 cm^2 and a homogeneous distribution, a dose of 5 μg/cm^2 is achieved.
After the solvent has evaporated, each test tube is filled with 5-10 adult brown dog ticks (Rhipicephalus sanguineus), closed with a perforated lid and incubated in a lying position at room temperature and relative humidity. After 48 hours efficacy is determined. The ticks are patted on the ground of the tubes and are incubated on a heating plate at 45-50° C. for at most 5 minutes Immotile or uncoordinated moving ticks, which are not able to escape the heat by climbing upwards, are marked as dead or moribund.
An efficacy of 100% means all ticks are dead or moribund; 0% means no ticks are dead or moribund.

[8] = test system: adult cat fleas (Ctenocephalides felis); experiment: Ctenocephalides felis in-vitro contact test, adult cat flea; details: 5 μg/cm^2 (=500 g/ha), after 48 hours, read-out: efficacy (fleas dead or moribund)
Summary of the method: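 Compound in acetone coated onto inner walls of glass tubes (900 ppm solution giving 5 μg/cm^2); after drying, 5-10 adult fleas added and kept at room temperature. At 48 h, fleas placed on 45-50 °C plate ≤5 min; immotile or uncoordinated ones scored dead/moribund; efficacy as % dead/moribund.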

C[C@H](NC(=O)c1cc(Cl)cc(OS(C)(=O)=O)c1)c1ncnn1-c1ccc(C#N)cn1 [Example I-46]
100%: mortality at 100 g/ha [1] | pest or weed control at 4 µg/tick ([3]; 4 μg/tick injected) | pest or weed control at 20 µg/tick ([3]; 20 μg/tick injected) | mortality at 100 ppm [4] | mortality at 100 g/ha [5] | pest or weed control at 5 µg/cm2, 5 µg/cm2 [6] | pest or weed control at 5 µg/cm2, 5 µg/cm2 [7] | pest or weed control at 5 µg/cm2, 5 µg/cm2 [8]
80 to 100%: mortality at 20 mg/m2 [2]
